Among the data in patent US12145947B2, “Pyrimidine based modulators and uses thereof” (Quanta Therapeutics, Inc., priority 2022, dated 2024) are IC50 values, retold here.

Molecules are shown by their SMILES.

One experiment has as its target T1, KRAS G12D/RAF1 (Homo sapiens, UniProt P01116, G12D).
T1 construct: His6-MBP (N, cleaved yes); made in house; host or cells: E. coli
Put plainly: Protein-protein interaction (PPI) HTRF assay KRAS G12D/RAF1. It is filed as binding. The note with it: Table 4. An outline of the steps:
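Biotinylated human KRAS (1-169; wt, G12D, G12V) or wt NRAS, GppNHp-loaded, pre-incubated 30 min RT with compound and streptavidin-d2, then His-RAF1 RBD (52-131) with anti-6His Tb cryptate added for 1 h RT. HTRF 665/615 ratio normalized to no compound (0%) and untagged RAF1 (100%); IC50.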

The test system of experiment [1] is AGS cells (KRAS G12D), phospho-ERK. Description: pERK In Cell Western (ICW) assay (Method B), AGS cells. It is filed as cell-based. As to conditions: Homo sapiens, Table 4, pERK, 3 hours, read-out: ICW-AGS. The procedure:
pERK ICW is a high throughput screening assay to evaluate the cellular potency of mutant KRAS small molecule inhibitors. KRAS mutant cell lines AGS and GP2D (KRAS^G12D) were purchased from ATCC and maintained respectively in RPMI and DMEM medium supplemented with 10% fetal bovine serum and Penicillin/Streptomycin.
Cells grown in exponential phase were trypsinized, resuspended in fresh media, and viable cells were counted using a cell counter with Trypan Blue (BioRad TC20). Cells were seeded into 384-well plate (Greiner 781091) at density of 5,000 cells/well for AGS and 10,000 cells/well for GP2D and allowed to grow overnight in a 37° C. CO2 incubator. The next day, compounds were dispensed into wells with a ½ log, 10-point serial dilution and top concentration of […] using Tecan D300e dispenser and incubated for 3 hours in a 37° C. CO2 incubator. Cells were then fixed with paraformaldehyde (Electron Microscopy Sciences, 15710, 4% final concentration) for 30 min, permeabilized with wash buffer (1×PBS+0.1% Triton X-100) for 30 min and blocked with Odyssey blocking buffer (Li—COR 927-70001) for 1 hour, all at room temperature (RT). Phospho-ERK antibody (CST 4370L) was diluted 1:500 in Odyssey blocking+0.2% Tween 20 and incubated with cells overnight at 4° C. The next day, plates were washed 5× with wash buffer, incubated with IRDye 800 CW, Goat anti-Rabbit secondary antibody (Li—COR 926-32211, 1:500) and DRAQ5 (CST 4084L, 1:5,000) diluted in Odyssey blocking+0.2% Tween 20 for 1 hour, washed 5×, and imaged on an Odyssey CLx imaging system.
For data analysis, signal intensities from 800 (phosphor-ERK) and 700 (DRAQ5) channels were extracted, and phospho-ERK signals were normalized to DRAQ5 signals for each well and percent of DMSO control values were computed. Data were then imported into Graphpad Prism to compute half-maximal inhibitory concentrations (IC50) using a 4-parameter variable slope model. Z-factor for each plate was computed from signals derived from wells treated with either DMSO or […] of Trametinib. AGS pERK ICW (Method B) IC50 (uM) values of selected compounds are depicted in Table 2 with compounds having a value 0.001 uM to 0.01 uM as ++++; >0.01 uM to 0.1 uM as +++; >0.1 uM to 1 uM as ++; 1 uM to 10 uM as + and >10 uM as NA.

The test system of experiment [2] is GP2D cells (KRAS G12D), phospho-ERK. Description: pERK In Cell Western (ICW) assay, GP2D cells. It is filed as cell-based. The note with it: Table 4, 3 hours. The method, boiled down: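 GP2D (10,000 cells/well) and AGS (5,000 cells/well) cells were treated for 3 h at 37 °C with a 10-point, ½-log dilution series (top […]). They were then fixed and immunostained for phospho-ERK. pERK signal was normalised to DRAQ5 and expressed as % of DMSO, with IC50 from a 4-parameter fit.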

T1 sequence (P01116 with tags, fused parts or gaps isoform P01116-2 G12D): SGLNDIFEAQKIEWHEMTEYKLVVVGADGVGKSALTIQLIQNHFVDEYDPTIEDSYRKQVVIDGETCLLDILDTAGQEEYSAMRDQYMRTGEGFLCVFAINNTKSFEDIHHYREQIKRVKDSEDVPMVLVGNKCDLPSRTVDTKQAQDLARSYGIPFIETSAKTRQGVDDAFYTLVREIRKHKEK

In the case of `N#Cc1cc2n(n1)CCCN(c1nc(OC[C@@]34CCCN3C[C@H](F)C4)nc(N3CC4(CCc5sc(N)c(C#N)c54)C3)c1C#N)C2` [Compound 24, 2-amino-1′-[5-cyano-6-(2-cyano-4,6,7,8-tetrahydropyrazolo[1,5-a][1,4]diazepin-5-yl)-2-[[(2R,8S)-2-fluoro-1,2,3,5,6,7-hexahydropyrrolizin-8-yl]methoxy]pyrimidin-4-yl]spiro[5,6-dihydrocyclopenta[b]thiophene-4,3′-azetidine]-3-carbonitrile], the IC50 lay in the range of 10000 to 100000 nM against KRAS G12D/RAF1, 100 to 1000 nM in experiment [1] and 100 to 1000 nM in experiment [2].
On to `N#Cc1c(N2C[C@H]3CC[C@@H](C2)N3)nc(OC[C@@]23CCCN2C[C@H](F)C3)nc1N1CC2(CCc3sc(N)c(C#N)c32)C1` [Compound 25, 2-amino-1′-[5-cyano-6-(3,8-diazabicyclo[3.2.1]octan-3-yl)-2-[[(2R,8S)-2-fluoro-1,2,3,5,6,7-hexahydropyrrolizin-8-yl]methoxy]pyrimidin-4-yl]spiro[5,6-dihydrocyclopenta[b]thiophene-4,3′-azetidine]-3-carbonitrile], for which the IC50 against KRAS G12D/RAF1 lay in the range of 100 to 1000 nM; in experiment [1], 10 to 100 nM; in experiment [2] it was 1 to 10 nM.
Consider `CN(C)CC(F)(F)COc1nc(N2C[C@H]3CC[C@@H](C2)N3)c(C#N)c(N2CC3(CCc4sc(N)c(C#N)c43)C2)n1` [Compound 26, 2-amino-1′-[5-cyano-6-(3,8-diazabicyclo[3.2.1]octan-3-yl)-2-[3-(dimethylamino)-2,2-difluoro-propoxy]pyrimidin-4-yl]spiro[5,6-dihydrocyclopenta[b]thiophene-4,3′-azetidine]-3-carbonitrile], for which the IC50 at KRAS G12D/RAF1 lay in the range of 10000 to 100000 nM; in experiment [1], 1000 to 10000 nM; in experiment [2], 100 to 1000 nM.
The matching figures for `Cn1c(-c2cc3n(n2)CCCN(c2nc(OC[C@@]45CCCN4C[C@H](F)C5)nc(N4CC5(CCc6sc(N)c(C#N)c65)C4)c2C#N)C3)nc2ccccc21` [Compound 29, 2-amino-1′-[5-cyano-6-[2-(1-methylbenzimidazol-2-yl)-4,6,7,8-tetrahydropyrazolo[1,5-a][1,4]diazepin-5-yl]-2-[[(2R,8S)-2-fluoro-1,2,3,5,6,7-hexahydropyrrolizin-8-yl]methoxy]pyrimidin-4-yl]spiro[5,6-dihydrocyclopenta[b]thiophene-4,3′-azetidine]-3-carbonitrile]: 10000 to 100000 nM, 1000 to 10000 nM and 100 to 1000 nM.
The matching figures for `Cn1c(-c2nn3c(c2Cl)CN(c2nc(OC[C@@]45CCCN4C[C@H](F)C5)nc(N4CC5(CCc6sc(N)c(C#N)c65)C4)c2C#N)CCC3)nc2ccccc21` [Compound 30]: 10000 to 100000 nM, 100 to 1000 nM and 10 to 100 nM.
The matching figures for `Cn1c(-c2nn3c(c2Cl)CN(c2nc(OC[C@@]45CCCN4C[C@H](F)C5)nc(N4CC5(CCc6sc(N)c(C#N)c65)C4)c2C#N)CCC3)nc2c(F)cccc21` [Compound 32, 2-amino-1′-[6-[3-chloro-2-(4-fluoro-1-methyl-benzimidazol-2-yl)-4,6,7,8-tetrahydropyrazolo[1,5-a][1,4]diazepin-5-yl]-5-cyano-2-[[(2R,8S)-2-fluoro-1,2,3,5,6,7-hexahydropyrrolizin-8-yl]methoxy]pyrimidin-4-yl]spiro[5,6-dihydrocyclopenta[b]thiophene-4,3′-azetidine]-3-carbonitrile]: 10000 to 100000 nM, 100 to 1000 nM and 10 to 100 nM.
Take `N#Cc1c(N2CCCC(C#N)CC2)nc(OC[C@@]23CCCN2C[C@H](F)C3)nc1N1CC2(CCc3sc(N)c(C#N)c32)C1` (stereo partly drawn) [Compound 33, 2-amino-1′-[5-cyano-6-(4-cyanoazepan-1-yl)-2-[[(2R,8S)-2-fluoro-1,2,3,5,6,7-hexahydropyrrolizin-8-yl]methoxy]pyrimidin-4-yl]spiro[5,6-dihydrocyclopenta[b]thiophene-4,3′-azetidine]-3-carbonitrile]: the IC50 on KRAS G12D/RAF1 is 1000 to 10000 nM; in experiment [1], 1000 to 10000 nM; in experiment [2], 100 to 1000 nM.
